Test results published in ChEMBL document CHEMBL1932944, “Hoiamide D, a marine cyanobacteria-derived inhibitor of p53/MDM2 interaction” (Bioorg Med Chem Lett, 2012).

Columns and labels:
[1] = Inhibition of p53/HDM2 interaction
[2] = tested on: NCI-H460; test: Cytotoxicity against human H460 cells at 40 uM relative to control; type: functional
[3] = Inhibition of human biotin-labelled p53/GST-tagged Hdm2 interaction preincubated for 20 mins before GST-tagged Hdm2 protein addition measured after 1 hr by HTR-FRET based competition assay

| SMILES | IC50 [1] [µM] | Activity [2] [%] | EC50 [3] [µM] |
| --- | --- | --- | --- |
| CCCCCCCC[C@H]1NC(=O)[C@@H](CC(C)C)NC(=O)[C@H]([C@@H](C)O)NC(=O)[C@@H](CC(C)C)NC(=O)[C@@H](CC(N)=O)NC(=O)[C@H](CC(N)=O)NC(=O)[C@H](C)NC(=O)[C@H]([C@@H](C)O)NC(=O)[C@H](CCCN2C=C3C(=O)[C@@](C)(OC(=O)CCC)C(=O)C(Cl)=C3[C@@H](O)[C@]23CCCO3)NC1=O (relative stereo) | 4.6 | – | – |
| C=C(C(=O)O)C(CCCCCC)C(=O)O (centres undefined) [HEXYLITACONIC ACID] | 230 | – | – |
| CCC[C@@H](C)[C@H](O)[C@H](C)[C@@H](O)[C@@H](C)[C@H](Cc1nc(C2=N[C@@](C)(C3=N[C@@](C)(C(=O)N[C@H]([C@@H](O)[C@@H](C)C(=O)O)[C@@H](C)CC)CS3)CS2)cs1)OC [HOIAMIDE D] | – | 16 | 4.5 |
